Converted amounts (≈) assume the structure as drawn. Where two headings read alike, the source gives them in different places.
Assays:
[1] = system: 48 rhinovirus types and coxsackievirus A21, B3, enterovirus 70 and echovirus 11; conditions: cell culture; cited from earlier work
[2] = clinical studies; cited from earlier work
[3] = system: Rhino 39; assay: Multicycle CPE reduction assay, Rhino 39; type: cell-based; conditions: incubation at 37° C. in HeLa cells
Description: (§1) The test compounds were evaluated for anti-picornavirus activity by a multicycle cytopathic effect (CPE) reduction assay. The antiviral activity was initially determined using an MTS [3-(4,5-dimethylthiazol-2-yl)-5-(3-carboxymethoxyphenyl)-2-(4-sulfophenyl-2H-tetrazolium]-based CPE reduction assay.
(§2) In this regard, cells grown to confluence in 96-well plates were infected with 100 50% cell culture infective doses (CCID50) of virus. After an adsorption period of 2 hrs at 37° C., virus was removed and serial dilutions of the compounds were added. […] After removal of the medium, 90 μl of a culture medium and 10 μl of MTS-phenazine methosulfate (Promega, Leiden, The Netherlands) were added to each well. After an incubation period of 2 hrs at 37° C., the optical density (OD) of each well was read at 498 nm in a microplate reader.
(§3) CPE values for evaluating antiviral activity were calculated using the following Mathematic Formula 3: […]
(§4) The 50% effective concentration (EC50) and the 50% cytotoxic concentration (CC50) were defined as the concentrations of compound that offered 50% protection against virus-induced CPE and that killed cells by 50%, respectively, and were calculated using logarithmic interpolation.

[4] = system: Rhino 70; assay: Multicycle CPE reduction assay, Rhino 70; type: cell-based
Description: as §1, §2, §3, §4

[5] = system: Rhino 42; assay: Multicycle CPE reduction assay, Rhino 42; type: cell-based; conditions: incubation at 37° C. in HeLa cells
Description: as §1, §2, §3, §4

[6] = system: Echo 9; assay: Multicycle CPE reduction assay, Echo 9; type: cell-based
Description: as §1, §2, §3, §4

[7] = system: Entero 71; assay: Multicycle CPE reduction assay, Entero 71; type: cell-based; conditions: incubation at 37° C. in RD cells
Description: as §1, §2, §3, §4

[8] = system: Rhino 2; assay: Multicycle CPE reduction assay, Rhino 2; type: cell-based; conditions: incubation at 37° C. in HeLa cells
Description: as §1, §2, §3, §4

[9] = system: Rhino 85; assay: Multicycle CPE reduction assay, Rhino 85; type: cell-based; conditions: incubation at 37° C. in HeLa cells
Description: as §1, §2, §3, §4

[10] = system: Polio 2; assay: organism not typed; type: cell-based; conditions: BGM, read-out: Polio 2 EC50
[11] = system: Rhino 86; assay: Multicycle CPE reduction assay, Rhino 86; type: cell-based; conditions: incubation at 37° C. in HeLa cells
Description: as §1, §2, §3, §4

[12] = system: Rhino 72; assay: Multicycle CPE reduction assay, Rhino 72; type: cell-based; conditions: incubation at 37° C. in HeLa cells
Description: as §1, §2, §3, §4

[13] = system: Rhino 41; assay: Multicycle CPE reduction assay, Rhino 41; type: cell-based; conditions: incubation at 37° C. in HeLa cells
Description: as §1, §2, §3, §4

[14] = Cytotoxicity (CC50), MTS-based assay (Experimental Example 2); type: cell-based
Description: as §1, §2
CPE values for evaluating cytotoxicity were calculated using the following Mathematic Formula 4: […]
as §4

[15] = system: Rhino 89; assay: Multicycle CPE reduction assay, Rhino 89; type: cell-based; conditions: HeLa, read-out: Rhino 89 EC50
Description: as §1, §2, §3, §4

[16] = system: Echo 11; assay: Multicycle CPE reduction assay, Echo 11; type: cell-based; conditions: BGM, read-out: Echo 11 EC50
Description: as §1, §2, §3, §4

[17] = system: Rhino 45; assay: Multicycle CPE reduction assay, Rhino 45; type: cell-based; conditions: incubation at 37° C. in HeLa cells
Description: as §1, §2, §3, §4

[18] = system: Coxsackie A21; assay: Multicycle CPE reduction assay, Coxsackie A21; type: cell-based; conditions: MRC5; incubation at 37° C. in MRC-5 cells
Description: as §1, §2, §3, §4

[19] = system: Coxsackie A16; assay: Multicycle CPE reduction assay, Coxsackie A16; type: cell-based; conditions: MRC5; incubation at 37° C. in MRC-5 cells
Description: as §1, §2, §3, §4

[20] = system: Polio 1; assay: organism not typed; type: cell-based; conditions: BGM, read-out: Polio 1 EC50
[21] = system: Rhino 9; assay: Multicycle CPE reduction assay, Rhino 9; type: cell-based; conditions: incubation at 37° C. in HeLa cells
Description: as §1, §2, §3, §4

[22] = system: Rhino 63; assay: Multicycle CPE reduction assay, Rhino 63; type: cell-based; conditions: incubation at 37° C. in HeLa cells
Description: as §1, §2, §3, §4

[23] = system: Rhino 15; assay: Multicycle CPE reduction assay, Rhino 15; type: cell-based; conditions: incubation at 37° C. in HeLa cells
Description: as §1, §2, §3, §4

[24] = system: Rhino 29; assay: Multicycle CPE reduction assay, Rhino 29; type: cell-based; conditions: incubation at 37° C. in HeLa cells
Description: as §1, §2, §3, §4

[25] = in vitro; conditions: human
[26] = system: Polio 3; assay: organism not typed; type: cell-based; conditions: BGM, read-out: Polio 3 EC50
[27] = system: Rhino 14; assay: Multicycle CPE reduction assay, Rhino 14; type: cell-based; conditions: incubation at 37° C. in HeLa cells
Description: as §1, §2, §3, §4

[28] = system: Poliovirus 3; assay: microbe, parasite or virus in culture; type: cell-based; conditions: Enterovirus C
[29] = system: Coxsackie A9; assay: Multicycle CPE reduction assay, Coxsackie A9; type: cell-based; conditions: incubation at 37° C. in BGM cells
Description: as §1, §2, §3, §4

[30] = system: Coxsackie A24(DN); assay: CPE inhibition assay, Coxsackie A24(DN); type: cell-based; conditions: MRC5, 48 h; MRC-5, 37° C., 2 days, FDA
[31] = system: Coxsackie A24(HG); assay: CPE inhibition assay, Coxsackie A24(HG); type: cell-based; conditions: MRC5, 48 h; MRC-5, 37° C., 2 days, FDA
[32] = system: Rhino 59; assay: Multicycle CPE reduction assay, Rhino 59; type: cell-based; conditions: incubation at 37° C. in HeLa cells
Description: as §1, §2, §3, §4

[33] = system: mock-infected cells (HeLa, MRC-5, RD); conditions: human
[34] = cited from earlier work; for metabolization and excretion / bioavailability: in vivo
[35] = system: rhinovirus infections; conditions: treatment of rhinovirus infections; cited from earlier work
[36] = in vivo; cited from earlier work
[37] = cited from earlier work
[38] = HeLa, read-out: Rhino 70 EC50, incubation at 37° C. in HeLa cells

CCOC(=O)/C=C/[C@H](C[C@@H]1CCNC1=O)NC(=O)[C@@H](CC(=O)[C@@H](NC(=O)c1cc(C)on1)C(C)C)Cc1ccc(F)cc1 [AG 7088]
concentration range with antiviral effect [1]: nanomolar concentration range

CC(C)S(=O)(=O)n1c(N)nc2ccc(/C(=N/O)c3ccccc3)cc21 [Enviroxime]
pharmacokinetics [2]: bad pharmacokinetics | side effects [2]: unwanted side effects | therapeutic effects [2]: insignificant or few therapeutic effects

CC(C)c1ccc2c(c1)OC1(O)c3ccccc3C(=O)C21O (stereo not drawn) [Example 10, 4b,9b-Dihydroxy-7-isopropyl-4bH-benzo[d]indeno[1,2-b]furan-10(9bH)-one]
EC50 [3]: > 50000 nM | EC50 [4, 38]: 2400 ± 360 nM | melting point: 195 to 198 °C | EC50 [5]: > 50000 nM | EC50 ([6]; MRC5, incubation at 37° C. in MRC-5 cells, read-out: Echo 9 EC50): 25 ± 5.7 nM | EC50 [7]: 12 ± 2 nM | EC50 [8]: > 50000 nM | EC50 [9]: > 50000 nM | EC50 [10]: 360 ± 150 nM | EC50 [11]: 8000 ± 2900 nM | EC50 [12]: 5300 ± 1200 nM | EC50 [13]: 8800 ± 120 nM | CC50 at 3 days [14]: > 100000 nM | EC50 [15]: > 50000 nM | EC50 [16]: 21 nM | EC50 ([17]; HeLa): 3400 ± 1500 nM | EC50 [18]: 1100 ± 580 nM | EC50 [19]: 90 ± 35 nM | EC50 [20]: 750 ± 370 nM | EC50 [21]: > 50000 nM | EC50 [22]: > 50000 nM | EC50 [23]: > 50000 nM | EC50 [24]: > 50000 nM | CC50 [25]: 18.4 µg/mL (≈ 62.2 µM) | CC50 ([25]; Picorana CC50): 14.2 µg/mL (≈ 47.9 µM) | EC50 [26]: 1000 ± 570 nM

CC(C)c1ccc2c(c1)O[C@@]1(O)c3cccc(N)c3C(=O)[C@@]21O [Example 46, 1-Amino-4b,9b-dihydroxy-7-isopropyl-4bH-benzo[d]indeno[1,2-b]furan-10(9bH)-one]
EC50 [3]: 3000 ± 170 nM | EC50 ([4]; HeLa, incubation at 37° C. in HeLa cells, read-out: Rhino 70 EC50): ≤ 78 nM | EC50 ([4]; read-out: Rhino 70 EC50, incubation at 37° C. in HeLa cells, listed as Ex. 46): > 78 nM | melting point: 180 to 182 °C | EC50 ([6]; MRC5, read-out: Echo 9 EC50): 3.5 nM | EC50 [7]: 3.1 nM | EC50 [27]: < 10 nM | EC50 [8]: > 10000 nM | EC50 [9]: 6200 ± 700 nM | EC50 ([28]; read-out: Poliovirus3 EC50): < 0.01 µg/mL | EC50 [10]: 18 ± 1.9 nM | EC50 [29]: 1.7 nM | EC50 [13]: 470 ± 36 nM | CC50 at 3 days [14]: > 100000 nM | EC50 [15]: 340 ± 860 nM | EC50 [16]: 2.3 ± 0.88 nM | EC50 ([17]; HeLa): ≤ 78 nM | EC50 ([17]; listed as Ex. 46): < 78 nM | EC50 [20]: 68 nM | EC50 [21]: 3500 ± 150 nM | EC50 [22]: 8500 ± 130 nM | EC50 [23]: 2800 ± 260 nM | EC50 [24]: 4600 ± 720 nM | CC50 [25]: 18.3 µg/mL (≈ 58.9 µM) | CC50 ([25]; Picorana CC50): 9.42 µg/mL (≈ 30.3 µM) | EC50 [26]: 43 ± 17 nM

CC(=O)O[C@@]12Oc3cc(C(C)C)ccc3[C@]1(OC(C)=O)C(=O)c1c(N)cccc12 [Example 47, 1-Amino-7-isopropyl-10-oxo-9b,10-dihydro-4bH-benzo[d]indeno[1,2-b]furane-4b,9b-diyl diacetate]
melting point: 220 to 223 °C | EC50 [30]: 0.055 µg/mL | EC50 ([28]; HeLa37, 48 h, read-out: Poliovirus 3 EC50): < 0.1 µg/mL | EC50 ([28]; read-out: Poliovirus3 EC50): < 0.1 µg/mL | CC50 [25]: 15.4 µg/mL | EC50 [31]: < 0.01 µg/mL

CC(=O)NC12C(=O)c3ccccc3C1(O)Oc1cc(C(C)C)ccc12 (stereo not drawn) [Example 66, N-(4b-Hydroxy-7-isopropyl-10-oxo-4b,10-dihydro-5-oxa-indeno[2,1-a]inden-9b-yl)-acetamide]
EC50 [3]: 1800 ± 370 nM | EC50 [4, 38]: 57 ± 17 nM | EC50 [5]: 150 ± 23 nM | EC50 [7]: 25 ± 0.92 nM | EC50 [8]: 5900 ± 250 nM | EC50 [9]: > 5800 nM | EC50 [10]: 230 ± 20 nM | EC50 [11]: 70 ± 6.6 nM | EC50 [12]: 130 ± 69 nM | EC50 [29]: 8.3 ± 0.43 nM | EC50 [13]: 600 ± 26 nM | CC50 at 3 days [14]: > 100000 nM | EC50 [15]: 630 ± 23 nM | EC50 [16]: 7.2 ± 0.18 nM | EC50 ([17]; HeLa): 1700 ± 460 nM | EC50 [20]: 690 ± 170 nM | EC50 [21]: 2300 ± 700 nM | EC50 [32]: > 10000 nM | EC50 [22]: > 10000 nM | EC50 [23]: 4600 ± 1300 nM | EC50 [24]: 6400 ± 830 nM | CC50 ([25]; Picorana CC50): 44.7 µg/mL (≈ 133 µM) | EC50 [26]: 580 ± 6.9 nM

CC(C)c1ccc2c(c1)OC1(O)c3cccc(N)c3C(=O)C21NC(=O)c1[nH]nc2ccccc12 (stereo not drawn) [Example 288, N-(1-Amino-4b-hydroxy-7-isopropyl-10-oxo-9b,10-dihydro-4bH-benzo[d]indeno[1,2-b]furan-9b-yl)-2H-indazole-3-carboxamide]
EC50 ([28]; read-out: Poliovirus3 EC50): 0.029 µg/mL (≈ 0.0638 µM) | Picorana CC50 [33]: >10 µg/mL

Cc1cc(CCCOc2c(C)cc(-c3noc(C(F)(F)F)n3)cc2C)on1 [Pleconaril, pleconaril]
oral bioavailability ([34]; oral): very good oral bioavailability | side effects [35]: side effects were observed | therapy success [35]: therapy success was too low

Cc1cc(CCCCCOc2c(Cl)cc(C3=NCCO3)cc2Cl)on1 [WIN 54954]
metabolization and excretion [34]: rapid metabolization and excretion | side effects [36]: skin rash

CCC(=O)C(CCCCCCOc1ccc(OC)cc1Cl)C(=O)CC [arildone, Arildone]
bioavailability [34]: low bioavailability | solubility [37]: poor solubility

Cc1cc(CCCCCCCOc2ccc(C3=NCCO3)cc2)on1 [disoxaril]
bioavailability [34]: low bioavailability | metabolization and excretion [34]: rapid metabolization and excretion
